According to patent EP0468434B1, “Novel piperidyl ethers and thioethers as inhibitors of cholesterol biosynthesis” (MERRELL DOW PHARMACEUTICALS INC., priority 1990, dated 1992):

Biological target: T1, oxidosqualene cyclase (Rattus norvegicus, UniProt P48450)
T1 construct: Microsomes, prepared by ultracentrifugation of homogenates of rat liver; from tissue; host or cells: rat liver microsomes plus high speed supernatant fraction
T1 sequence (P48450 1-733): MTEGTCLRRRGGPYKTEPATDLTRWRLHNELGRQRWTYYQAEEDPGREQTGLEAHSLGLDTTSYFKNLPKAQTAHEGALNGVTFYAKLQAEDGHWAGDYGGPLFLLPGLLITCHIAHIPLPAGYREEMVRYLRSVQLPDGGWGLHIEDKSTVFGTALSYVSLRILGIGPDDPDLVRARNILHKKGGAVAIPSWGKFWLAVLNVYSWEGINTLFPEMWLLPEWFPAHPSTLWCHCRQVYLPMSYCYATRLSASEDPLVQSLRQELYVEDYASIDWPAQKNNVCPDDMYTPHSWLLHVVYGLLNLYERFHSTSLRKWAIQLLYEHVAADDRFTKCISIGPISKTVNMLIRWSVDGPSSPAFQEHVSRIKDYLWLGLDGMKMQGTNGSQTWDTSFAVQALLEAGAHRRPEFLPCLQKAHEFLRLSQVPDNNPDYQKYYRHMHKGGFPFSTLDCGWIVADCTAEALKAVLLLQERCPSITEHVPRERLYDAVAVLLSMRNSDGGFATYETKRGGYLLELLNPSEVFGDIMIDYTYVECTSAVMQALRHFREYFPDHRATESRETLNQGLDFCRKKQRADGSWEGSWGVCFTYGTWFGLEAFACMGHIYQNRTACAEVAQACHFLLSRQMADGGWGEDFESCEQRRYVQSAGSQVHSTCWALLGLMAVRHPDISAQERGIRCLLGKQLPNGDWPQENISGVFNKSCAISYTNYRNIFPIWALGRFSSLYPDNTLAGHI
Test: Inhibition of cholesterol biosynthesis: oxidosqualene cyclase in rat liver microsomes (TLC or HPLC assay)
Format: biochemical
Conditions: 37°C, 45 minutes, 60µM ³H-squalene, 2.0mM NADPH, 0.01mM FAD, compounds tested at 0.0 to 100.0µM, read-out: Cyclase, IC₅₀
Protocol: The following example illustrates the utility of compounds of formula (1) in inhibiting cholesterol biosynthesis. This example is understood to be illustrative only and is not intended to limit the scope of the present invention in any way. Microsomes, prepared by ultracentrifugation of homogenates of rat liver, are incubated at 37°C for 45 muinutes in the presence of 60µM ³H-squalene, 2.0mM NADPH, 0.01mM FAD, and the high speed supernatant fraction from the microsomal preparation. Blanks, in which NADPH has been omitted, are run simultaneously with the test compounds. Compounds are tested at concentrations of 0.0 to 100.0µM.
• a) TLC Assay: Following incubation, the samples are saponified, standards are added to each sample, and then the reaction products are extracted into hexane. […] Spots containing the reaction products are scraped from the TLC plates and counted for ³H-radioactivity in a scintillation counter. An IC₅₀ for squalene epoxidase and oxidosqualene cyclase is calculated. • b) HPLC Assay: Following incubation, reactions are stopped by the addition of chloroform:methanol, standards are added, then reaction products and standards are extracted into chloroform. […] Chromatographic peaks containing reaction products are monitored for ³H- radioactivity with a flow-through scintillation counter connected in series with the HPLC column. […]

| IC50 [µM] | Compound |
| --- | --- |
| > 100 | CCSCCN1CCCCC1 [Compound E, 2-(1-piperidyl)ethyl ethyl sulfide] |
| 24 | CC(C)CCSCCCCCN1CCCCC1 [Compound A] |
